Results published in PubChem BioAssay AID256 (DTP/NCI, 2004).
Where “and” joins values, the source holds several entries; their conditions need not be identical. Equal values may be shown once. Toxic doses and inconclusive results are not listed. How the source made its calls: active means survival T/C of 150% or more; inactive means T/C below 125% in these data.

Tested on: CD2F1 mice, L1210 leukemia ip, survival T/C
Assay: NCI In Vivo Anticancer Drug Screen. Data for tumor model L1210 Leukemia (intraperitoneal) in CD2F1 (CDF1) mice
Conditions: higher = longer survival
In short: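 Transplantable tumor in mice; compound-treated vs vehicle-treated groups. Read-out = treated/control ratio of the measured endpoint.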

[1] = endpoint: mean survival time, dose: 100.0 mg/kg/injection, schedule: Q01DX001 (ip), vehicle: Klucel (hydroxypropylcellulose) (HPC)
[2] = endpoint: mean survival time, dose: 200.0 mg/kg/injection, schedule: Q01DX001 (ip), vehicle: Klucel (hydroxypropylcellulose) (HPC)
[3] = endpoint: mean survival time, dose: 12.5 mg/kg/injection, schedule: Q01DX009 (ip), vehicle: saline with Tween-80
[4] = endpoint: mean survival time, dose: 25.0 mg/kg/injection, schedule: Q01DX009 (ip), vehicle: saline with Tween-80
[5] = endpoint: mean survival time, dose: 100.0 mg/kg/injection, schedule: Q04DX003 (ip), vehicle: saline with Tween-80
[6] = endpoint: mean survival time, dose: 200.0 mg/kg/injection, schedule: Q04DX003 (ip), vehicle: saline with Tween-80
[7] = endpoint: mean survival time, dose: 400.0 mg/kg/injection, schedule: Q04DX003 (ip), vehicle: saline with Tween-80
[8] = endpoint: mean survival time, dose: 12.5 mg/kg/injection, schedule: Q01DX009 (ip), vehicle: other
[9] = endpoint: mean survival time, dose: 25.0 mg/kg/injection, schedule: Q01DX009 (ip), vehicle: other
[10] = endpoint: mean survival time, dose: 50.0 mg/kg/injection, schedule: Q01DX009 (ip), vehicle: other

Measured: T/C

Cc1cc(NCCN(C(C)C)C(C)C)nc(/N=C(\N)Nc2ccc(Cl)c(C(F)(F)F)c2)n1
inactive: endpoint: mean survival time, dose: 1.25 mg/kg/injection, schedule: Q01DX009 (ip), vehicle: Klucel (hydroxypropylcellulose) (HPC) 98 % of control | endpoint: mean survival time, dose: 2.5 mg/kg/injection, schedule: Q01DX009 (ip), vehicle: Klucel (hydroxypropylcellulose) (HPC) 103 % of control | endpoint: mean survival time, dose: 5.0 mg/kg/injection, schedule: Q01DX009 (ip), vehicle: Klucel (hydroxypropylcellulose) (HPC) 105 % of control | endpoint: mean survival time, dose: 10.0 mg/kg/injection, schedule: Q01DX009 (ip), vehicle: Klucel (hydroxypropylcellulose) (HPC) 101 % of control | endpoint: mean survival time, dose: 20.0 mg/kg/injection, schedule: Q01DX009 (ip), vehicle: Klucel (hydroxypropylcellulose) (HPC) 100 % of control | endpoint: mean survival time, dose: 40.0 mg/kg/injection, schedule: Q01DX009 (ip), vehicle: Klucel (hydroxypropylcellulose) (HPC) 88 % of control

CCCCNc1ncnc2snnc12
inactive: [1] 101 % of control | [2] 98 % of control | endpoint: mean survival time, dose: 400.0 mg/kg/injection, schedule: Q01DX001 (ip), vehicle: Klucel (hydroxypropylcellulose) (HPC) 104 % of control

CN=C(N)N/N=C(\C)c1ccc2c(c1)Cc1ccccc1-2
inactive: [3] 102 % of control | [4] 105 % of control | endpoint: mean survival time, dose: 50.0 mg/kg/injection, schedule: Q01DX009 (ip), vehicle: saline with Tween-80 108 % of control | endpoint: mean survival time, dose: 100.0 mg/kg/injection, schedule: Q01DX009 (ip), vehicle: saline with Tween-80 97 % of control | endpoint: mean survival time, dose: 200.0 mg/kg/injection, schedule: Q01DX009 (ip), vehicle: saline with Tween-80 91 % of control | endpoint: median survival time, dose: 12.5 mg/kg/injection, schedule: Q01DX009 (ip), vehicle: saline with Tween-80 101 % of control | endpoint: median survival time, dose: 25.0 mg/kg/injection, schedule: Q01DX009 (ip), vehicle: saline with Tween-80 106 % of control | endpoint: median survival time, dose: 50.0 mg/kg/injection, schedule: Q01DX009 (ip), vehicle: saline with Tween-80 103 % of control | endpoint: median survival time, dose: 100.0 mg/kg/injection, schedule: Q01DX009 (ip), vehicle: saline with Tween-80 101 % of control | endpoint: median survival time, dose: 200.0 mg/kg/injection, schedule: Q01DX009 (ip), vehicle: saline with Tween-80 106 % of control

O=C(C(Cl)Cl)N(O)c1ccccc1OCc1ccccc1
inactive: [5] 105 % of control | [6] 103 % of control | [7] 103 % of control

Cc1cc(N=C(N)N)ccc1C(=O)Oc1ccc([N+](=O)[O-])cc1
inactive: [8] 102 % of control | [9] 98 % of control | [10] 90 % of control

CCn1c(C)[n+](CC)c2ccc(C(F)(F)F)cc21
inactive: endpoint: mean survival time, dose: 75.0 mg/kg/injection, schedule: Q01DX001 (ip), vehicle: saline 94 % of control | endpoint: mean survival time, dose: 150.0 mg/kg/injection, schedule: Q01DX001 (ip), vehicle: saline 100 % of control

CC1(C)C/C(=C\c2ccccc2[N+](=O)[O-])C(=O)c2ccccc21
inactive: endpoint: mean survival time, dose: 100.0 mg/kg/injection, schedule: Q04DX003 (ip), vehicle: acetone 92 % of control | endpoint: mean survival time, dose: 200.0 mg/kg/injection, schedule: Q04DX003 (ip), vehicle: acetone 90 % of control | endpoint: mean survival time, dose: 400.0 mg/kg/injection, schedule: Q04DX003 (ip), vehicle: acetone 93 % of control

CCOC(=O)C=C1CCN(C)CC1
inactive: endpoint: mean survival time, dose: 50.0 mg/kg/injection, schedule: Q04DX003 (ip), vehicle: saline 94 % of control | endpoint: mean survival time, dose: 100.0 mg/kg/injection, schedule: Q04DX003 (ip), vehicle: saline 97 % of control | endpoint: mean survival time, dose: 200.0 mg/kg/injection, schedule: Q04DX003 (ip), vehicle: saline 97 % of control

Nc1ccc2nc3ccc(N)cc3[n+](-c3ccccc3)c2c1
inactive: endpoint: mean survival time, dose: 6.0 mg/kg/injection, schedule: Q01DX009 (ip), vehicle: saline 105 % of control | endpoint: mean survival time, dose: 8.0 mg/kg/injection, schedule: Q01DX009 (ip), vehicle: saline 105 % of control | endpoint: mean survival time, dose: 12.0 mg/kg/injection, schedule: Q01DX009 (ip), vehicle: saline 110 % of control

CC(=O)OCC1OC(n2cnc3[nH]c(=S)[nH]c(=S)c32)C(OC(C)=O)C1OC(C)=O (centres undefined)
inactive: endpoint: mean survival time, dose: 100.0 mg/kg/injection, schedule: Q01DX001 (ip), vehicle: saline 103 % of control | endpoint: mean survival time, dose: 200.0 mg/kg/injection, schedule: Q01DX001 (ip), vehicle: saline 96 % of control | endpoint: mean survival time, dose: 400.0 mg/kg/injection, schedule: Q01DX001 (ip), vehicle: saline 97 % of control

CCCCCCC(C/C=C\CCCCCCCC(=O)OC)OC(C)=O (centres undefined)
inactive: [5] 101 % of control | [6] 101 % of control | [7] 97 % of control

CCCCCCCCCCCCOC(=O)C[n+]1cccc(C(=O)Nc2ccccc2)c1
inactive: [4] 95 % of control | [5] 102 % of control

N#CC(c1ccc(N)cc1)C(CC(=O)c1ccccc1)c1ccccc1 (centres undefined)
inactive: endpoint: mean survival time, dose: 100.0 mg/kg/injection, schedule: Q04DX002 (ip), vehicle: saline with Tween-80 87 % of control and 95 % of control | endpoint: mean survival time, dose: 200.0 mg/kg/injection, schedule: Q04DX002 (ip), vehicle: saline with Tween-80 91 % of control | endpoint: mean survival time, dose: 400.0 mg/kg/injection, schedule: Q04DX002 (ip), vehicle: saline with Tween-80 87 % of control and 95 % of control

CCOC(CNC(C)c1ccc2cc(OC)c(OC)cc2c1)OCC (centres undefined)
inactive: endpoint: mean survival time, dose: 12.5 mg/kg/injection, schedule: Q01DX009 (ip), vehicle: Klucel (hydroxypropylcellulose) (HPC) 97 % of control | endpoint: mean survival time, dose: 25.0 mg/kg/injection, schedule: Q01DX009 (ip), vehicle: Klucel (hydroxypropylcellulose) (HPC) 92 % of control | endpoint: mean survival time, dose: 50.0 mg/kg/injection, schedule: Q01DX009 (ip), vehicle: Klucel (hydroxypropylcellulose) (HPC) 89 % of control | endpoint: mean survival time, dose: 100.0 mg/kg/injection, schedule: Q01DX009 (ip), vehicle: Klucel (hydroxypropylcellulose) (HPC) 95 % of control | endpoint: mean survival time, dose: 200.0 mg/kg/injection, schedule: Q01DX009 (ip), vehicle: Klucel (hydroxypropylcellulose) (HPC) 100 % of control | endpoint: mean survival time, dose: 400.0 mg/kg/injection, schedule: Q01DX009 (ip), vehicle: Klucel (hydroxypropylcellulose) (HPC) 90 % of control

COC1=CCc2c(OC)ccc(OC)c2C1
inactive: [8] 103 % of control | [9] 103 % of control | [10] 93 % of control | endpoint: mean survival time, dose: 100.0 mg/kg/injection, schedule: Q01DX009 (ip), vehicle: other 95 % of control | endpoint: mean survival time, dose: 200.0 mg/kg/injection, schedule: Q01DX009 (ip), vehicle: other 88 % of control

Nc1cccc(Oc2ccc([N+](=O)[O-])cc2)c1
inactive: [1] 97 % of control | [2] 97 % of control

CN(C)CCCN=Cc1cc(Cl)ccc1O.CN(C)CCCN=Cc1cc(Cl)ccc1O.[Ni+2]
inactive: endpoint: mean survival time, dose: 6.25 mg/kg/injection, schedule: Q01DX009 (ip), vehicle: saline with Tween-80 93 % of control | [3] 93 % of control | [4] 100 % of control

Cc1sc(N)c(C#N)c1C
inactive: endpoint: mean survival time, dose: 100.0 mg/kg/injection, schedule: Q01DX009 (ip), vehicle: saline sonified 102 % of control | endpoint: mean survival time, dose: 200.0 mg/kg/injection, schedule: Q01DX009 (ip), vehicle: saline sonified 102 % of control | endpoint: mean survival time, dose: 400.0 mg/kg/injection, schedule: Q01DX009 (ip), vehicle: saline sonified 103 % of control

COC(=O)c1ccccc1NC1=NCCO1
inactive: endpoint: mean survival time, dose: 200.0 mg/kg/injection, schedule: Q04DX003 (ip), vehicle: Klucel (hydroxypropylcellulose) (HPC) 97 % of control | endpoint: mean survival time, dose: 400.0 mg/kg/injection, schedule: Q04DX003 (ip), vehicle: Klucel (hydroxypropylcellulose) (HPC) 86 % of control

CN1C2C=C(c3ccccc3)C(Br)C1CC2 (centres undefined)
inactive: endpoint: mean survival time, dose: 20.0 mg/kg/injection, schedule: Q01DX009 (ip), vehicle: saline 103 % of control | endpoint: mean survival time, dose: 40.0 mg/kg/injection, schedule: Q01DX009 (ip), vehicle: saline 112 % of control | endpoint: mean survival time, dose: 80.0 mg/kg/injection, schedule: Q01DX009 (ip), vehicle: saline 110 % of control

CC(C)(C)C(=O)CC(=O)C(C)(C)C.CC(C)(C)C(=O)CC(=O)C(C)(C)C.[Cu]
inactive: endpoint: mean survival time, dose: 9.5 mg/kg/injection, schedule: Q01DX009 (ip), vehicle: saline with Tween-80 98 % of control | endpoint: mean survival time, dose: 9.5 mg/kg/injection, schedule: Q04DX003 (ip), vehicle: saline with Tween-80 90 % of control | endpoint: mean survival time, dose: 19.0 mg/kg/injection, schedule: Q01DX009 (ip), vehicle: saline with Tween-80 102 % of control | endpoint: mean survival time, dose: 19.0 mg/kg/injection, schedule: Q04DX003 (ip), vehicle: saline with Tween-80 90 % of control | endpoint: mean survival time, dose: 38.0 mg/kg/injection, schedule: Q04DX003 (ip), vehicle: saline with Tween-80 91 % of control

Cc1cccc[n+]1CCC(N)=O
inactive: endpoint: mean survival time, dose: 6.25 mg/kg/injection, schedule: Q04DX003 (ip), vehicle: saline 96 % of control | endpoint: mean survival time, dose: 12.5 mg/kg/injection, schedule: Q04DX003 (ip), vehicle: saline 88 % of control | endpoint: mean survival time, dose: 25.0 mg/kg/injection, schedule: Q04DX003 (ip), vehicle: saline 91 % of control
